Our source for the solubility and IC50 values is patent EP0987250A1, “INDOLE DICARBOXYLIC ACID DERIVATIVES” (SHIONOGI & CO., LTD., priority 1997, dated 1998).

Series [1] in a line: Evaluation of solubility in water. The series is classed as physicochemical. The conditions noted are these: thermodynamic from solid; Na salt: monosodium salt of 10 and 21, disodium salt (20) of 11; water added dropwise by 10 µl; corrected for mg in 1 ml at 23°C. As for the experimental part: A solution of 10.3 mg (24.3 µmol) of compound (11) in 4.85 ml (48.6 µmol) of a 0.01 M methanolic solution of sodium methylate was filtered through a Millipore filter and then concentrated. The resulting residue was dried under reduced pressure to obtain disodium salt (20).

The next series deals with T1, human sPLA2 (Homo sapiens, UniProt P14555).
T1 sequence (P14555 21-144): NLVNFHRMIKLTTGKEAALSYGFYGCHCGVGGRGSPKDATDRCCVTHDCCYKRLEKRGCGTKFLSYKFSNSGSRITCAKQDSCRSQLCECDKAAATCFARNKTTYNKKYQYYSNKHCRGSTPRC
The experiment in a line: In vitro test for sPLA2-inhibitory action by PC/DOC method. The series is classed as biochemical. The conditions noted are these: PC/DOC = 1 mM/3 mM; Tris buffer 50 mM, pH 8.0; 40°C for 30 minutes; oleic acid measured by HPLC.

Experimental for human sPLA2: A 50 mM solution of 1-palmitoyl-1-oleoyl-sn-glycero-3-phosphatidylcholine in chloroform (PC) was used as a substrate. A 150 mM solution of sodium deoxycholate in methanol (DOC) was used as a surface-active agent
First, the substrate and the surface-active agent were transferred into an Eppendorf tube and the solvent was evaporated by applying a nitrogen stream. Then, the tube was placed in a desiccator and evacuated with a pump to complete dryness. Thereto was added water in an amount to be used for the assay and the solution was stirred for 1 minute. The final concentrations were adjusted so as to make PC/DOC = 1 mM/3 mM.
As the buffer solution for measurement was prepared a Tris buffer solution (50 mM, pH 8.0) containing 150 mM sodium chloride, calcium chloride (10 mM), and bovine serum albumin (1 mg/ml).
To a test compound solution were added the substrate solution and the buffer solution for measurement prepared as described above and the resulting mixture was stirred to mix. […] HPLC analysis was carried out under the following analysis conditions: Column: Supersphere ^R60 RP-8 (Merck & Co.) Mobile: Phase: Acetonitrile : Distilled water (93:7) Detection: Absorbance at 254 nm
The inhibitory activity of the compound was calculated from the amount of oleic acid thus-measured.

In the case of `CCc1c(C(=O)C(N)=O)c2c(OCC(=O)O)cc(C(=O)O)cc2n1Cc1ccccc1` [Compound 11, 1-Benzyl-6-carboxy-4-carboxymethyloxy-2-ethyl-3-oxamoyl-1H-indole], in series [1], the solubility (as a rule, the dissolved amount per volume that the medium holds) was 228 mg/mL. Moreover, at human sPLA2, half-maximal inhibition (IC50) required 43.8 nM.
Consider `CCc1c(C(=O)C(N)=O)c2c(OCC(=O)O)cccc2n1Cc1ccccc1` [Compound 21, reference compound], for which the solubility in series [1] was determined as 1.4 mg/mL.
Take `CCc1c(C(=O)C(N)=O)c2c(OCC(=O)O)cc(C(=O)OC)cc2n1Cc1ccccc1` [compound 10]: the solubility in series [1] worked out at 68 mg/mL. Also, on human sPLA2, half-maximal inhibition (IC50) was put at 1.7 nM.
